Experimental data reported in DBAASP.
Converted amounts (≈) assume the structure as drawn. “And” between values parts separate entries of the source, which are not always exact repeats. Identical values can stand only once. Values belong to the compound of their own block, whether it stands above or below them.

Experiments:
Test in all cases: ≥ marks a high value that may be exact or a test limit, other limits are often not marked, values filed in µg/mL are converted to µM
Bacillus subtilis PS832 = tested on: Bacillus subtilis PS832
Escherichia coli DL7 = tested on: Escherichia coli DL7
[1] = tested on: Klebsiella aerogenes ATCC 13048
[2] = tested on: Staphylococcus epidermidis ATCC 12228
[3] = tested on: Escherichia coli ATCC 25922
[4] = tested on: Klebsiella pneumoniae ATCC 700603
[5] = tested on: Pseudomonas aeruginosa ATCC 27853
[6] = tested on: Staphylococcus aureus ATCC 29213
[7] = tested on: Staphylococcus aureus ATCC 33591
[8] = tested on: Staphylococcus aureus ATCC 700699
[9] = tested on: Staphylococcus aureus ATCC 25923
[10] = tested on: Bacillus cereus ATCC 11778
[11] = tested on: Escherichia coli ATCC 35218
[12] = tested on: Pseudomonas aeruginosa ATCC 9027
Bacillus megaterium Bm11 = tested on: Bacillus megaterium Bm11
Escherichia coli D21 = tested on: Escherichia coli D21
Escherichia coli ML-35 = tested on: Escherichia coli ML-35
[13] = tested on: Salmonella enterica subsp. enterica serovar Typhimurium ATCC 14028
[14] = tested on: Serratia marcescens ATCC 8100
[15] = tested on: Acinetobacter baumannii ATCC BAA-1605
[16] = tested on: Enterococcus faecium ATCC 700221
[17] = tested on: Bacillus subtilis ATCC 62037
[18] = tested on: Candida albicans ATCC 10231
[19] = tested on: Escherichia coli ATCC 27325
[20] = tested on: Pseudomonas putida ATCC 17426
[21] = tested on: Saccharomyces cerevisiae ATCC 44774
[22] = tested on: Salmonella enterica subsp. enterica serovar Enteritidis ATCC 13076
[23] = tested on: Staphylococcus aureus ATCC 15752
[24] = tested on: Streptococcus mutans ATCC 25175
[25] = tested on: Cryptococcus neoformans ATCC 34881
[26] = tested on: Corynebacterium glutamicum ATCC 13032
Escherichia coli HB101 = tested on: Escherichia coli HB101
[27] = tested on: Staphylococcus aureus ATCC 9144

- MIC [17]: 0.717 µM (≈ 2 µg/mL)
- MIC [18]: 0.179 µM (≈ 0.5 µg/mL)
- MIC [19]: 1.43 µM (≈ 4 µg/mL)
- MIC [20]: 1.43 µM (≈ 4 µg/mL)
- MIC [21]: 0.179 µM (≈ 0.5 µg/mL)
- MIC [22]: 0.717 µM (≈ 2 µg/mL)
- MIC [23]: 0.717 µM (≈ 2 µg/mL)
- MIC [24]: 0.717 µM (≈ 2 µg/mL)
SMILES: CC[C@H](C)[C@H](NC(=O)[C@@H]1CCCN1C(=O)[C@H](Cc1c[nH]c2ccccc12)NC(=O)[C@H](CCC(N)=O)NC(=O)[C@H](CCCN=C(N)N)NC(=O)[C@@H](NC(=O)[C@@H](NC(=O)[C@@H](N)CCCN=C(N)N)C(C)C)C(C)C)C(=O)NCC(=O)N[C@@H](CCCN=C(N)N)C(=O)N[C@H](C(=O)N[C@H](C(=O)N[C@@H](CCCN=C(N)N)C(=O)N[C@@H](CCCN=C(N)N)C(=O)N[C@H](C(=O)N[C@H](C(=O)N[C@@H](CCCN=C(N)N)C(=O)N[C@@H](CCCN=C(N)N)C(=O)N[C@H](C(=O)N[C@H](C(=O)N[C@@H](CCCN=C(N)N)C(=O)N[C@@H](Cc1ccccc1)C(=O)O)C(C)C)C(C)C)C(C)C)C(C)C)C(C)C)C(C)C [RVVRQWPIGRVVRRVVRRVVRF]

- MIC [17]: 2.04 µM (≈ 4 µg/mL)
- MIC [18]: 16.3 µM (≈ 32 µg/mL)
- MIC [25]: 2.04 µM (≈ 4 µg/mL)
- MIC [19]: 4.08 µM (≈ 8 µg/mL)
- MIC [20]: 8.17 µM (≈ 16 µg/mL)
- MIC [21]: 8.17 µM (≈ 16 µg/mL)
- MIC [22]: 16.3 µM (≈ 32 µg/mL)
- MIC [23]: 8.17 µM (≈ 16 µg/mL)
- MIC [24]: 16.3 µM (≈ 32 µg/mL)
SMILES: CC(C)[C@H](NC(=O)[C@H](CCCCN)NC(=O)CNC(=O)CNC(=O)[C@H](CCC(N)=O)NC(=O)[C@H](CCCCN)NC(=O)CNC(=O)[C@H](CCCN=C(N)N)NC(=O)CNC(=O)[C@@H](N)CO)C(=O)N[C@@H](CCCN=C(N)N)C(=O)N[C@@H](C)C(=O)N[C@@H](CCCCN)C(=O)N[C@@H](C)C(=O)N[C@@H](CCCCN)C(=O)N[C@H](C(=O)N[C@@H](CCCN=C(N)N)C(=O)N[C@@H](CO)C(=O)N[C@@H](CO)C(=O)O)[C@@H](C)O [SGRGKQGGKVRAKAKTRSS]

- MIC [26]: 6.3 µM (≈ 14 µg/mL)
- MIC [3]: > 100 µM
- MIC (Escherichia coli HB101): ≥ 100 µM
- MIC [5]: > 100 µM
- MIC [27]: ≥ 100 µM
SMILES: CC[C@H](C)[C@H](NC(=O)[C@@H]1CCCN1C(=O)[C@H](CCCCN)NC(=O)[C@@H]1CCCN1C(=O)[C@H](CCCN=C(N)N)NC(=O)CNC(=O)[C@@H]1CCCN1C(=O)[C@H](Cc1ccccc1)NC(=O)[C@@H]1CCCN1C(=O)[C@H](CCCN=C(N)N)NC(=O)[C@@H]1CCCN1C(=O)[C@H](CCCN=C(N)N)NC(=O)CNC(=O)[C@@H]1CCCN1C(=O)[C@@H](N)CO)C(=O)N[C@@H](Cc1ccccc1)C(=O)N[C@@H](CCCN=C(N)N)C(=O)N1CCC[C@H]1C(=O)N[C@@H](CCCN=C(N)N)C(=O)O [SPGRPRPFPGRPKPIFRPR]

The remaining lines, values behind:

SMILES: CC(C)C[C@H](NC(=O)[C@H](CCCCN)NC(=O)[C@H](C)NC(=O)[C@H](CC(C)C)NC(=O)[C@H](CCCCN)NC(=O)[C@H](CCCCN)NC(=O)[C@H](C)NC(=O)[C@H](CC(C)C)NC(=O)[C@H](CCCCN)NC(=O)[C@H](C)NC(=O)[C@H](CC(C)C)NC(=O)[C@H](CCCCN)NC(=O)[C@H](Cc1cnc[nH]1)NC(=O)[C@H](C)NC(=O)[C@@H](N)CC(=O)O)C(=O)N[C@@H](C)C(=O)N[C@@H](CCCCN)C(N)=O [DAHKLAKLAKKLAKLAK]
- MIC (Bacillus subtilis PS832): 0.25 µM and 0.5 µM
- MIC (Escherichia coli DL7): 0.25 µM (≈ 0.462 µg/mL)
- MIC [1]: ≥ 32 µM
- MIC [2]: 4 µM (≈ 7.39 µg/mL)

SMILES: CC[C@H](C)[C@H](NC(=O)[C@H](CC(=O)O)NC(=O)[C@H](CCCCN)NC(=O)[C@H](C)NC(=O)[C@H](C)NC(=O)CNC(=O)[C@H](CCCCN)NC(=O)[C@H](CC(C)C)NC(=O)[C@@H](NC(=O)[C@H](CC(=O)O)NC(=O)[C@H](C)NC(=O)[C@@H](NC(=O)CN)C(C)C)[C@@H](C)CC)C(=O)N[C@@H](C)C(=O)NCC(=O)N[C@@H](Cc1cnc[nH]1)C(=O)N[C@@H](CC(C)C)C(=O)N[C@@H](C)C(=O)N[C@@H](CO)C(=O)N[C@@H](CCCCN)C(=O)N[C@H](C(=O)N[C@@H](CCSC)C(=O)N[C@@H](CC(N)=O)C(=O)N[C@@H](CCCCN)C(=O)N[C@@H](CC(C)C)C(N)=O)C(C)C [GVADILKGAAKDIAGHLASKVMNKL]
- MIC [3]: > 100 µM
- MIC [4]: 100 µM (≈ 252 µg/mL)
- MIC [5]: > 100 µM
- MIC [6]: > 100 µM
- MIC [7]: ≥ 100 µM
- MIC [8]: ≥ 100 µM

SMILES: CC[C@H](C)[C@H](NC(=O)[C@H](CC(=O)O)NC(=O)[C@H](CCCCN)NC(=O)[C@H](C)NC(=O)[C@H](C)NC(=O)CNC(=O)[C@H](CCCCN)NC(=O)[C@H](CC(C)C)NC(=O)[C@@H](NC(=O)[C@H](CC(=O)O)NC(=O)[C@@H](NC(=O)[C@@H](NC(=O)CN)C(C)C)C(C)C)[C@@H](C)CC)C(=O)N[C@@H](C)C(=O)NCC(=O)N[C@@H](C)C(=O)N[C@@H](CC(C)C)C(=O)N[C@@H](C)C(=O)N[C@@H](CO)C(=O)N[C@@H](CCCCN)C(=O)N[C@H](C(=O)N[C@@H](CCSC)C(=O)N[C@@H](CC(N)=O)C(=O)N[C@@H](CCCCN)C(=O)N[C@@H](CC(C)C)C(N)=O)C(C)C [GVVDILKGAAKDIAGALASKVMNKL]
- MIC [3]: 100 µM (≈ 248 µg/mL)
- MIC [4]: 100 µM (≈ 248 µg/mL)
- MIC [5]: > 100 µM
- MIC [6]: > 100 µM
- MIC [7]: ≥ 100 µM
- MIC [8]: ≥ 100 µM

SMILES: CC(C)C[C@H](NC(=O)[C@H](CCCCN)NC(=O)[C@H](C)NC(=O)[C@H](CC(C)C)NC(=O)[C@H](CCCCN)NC(=O)[C@H](CCCCN)NC(=O)[C@H](C)NC(=O)[C@H](CC(C)C)NC(=O)[C@H](CCCCN)NC(=O)[C@H](C)NC(=O)[C@H](CC(C)C)NC(=O)[C@@H](N)CCCCN)C(=O)N[C@@H](C)C(=O)N[C@@H](CCCCN)C(N)=O [KLAKLAKKLAKLAK]
- MIC (Bacillus subtilis PS832): 0.5 µM and 0.25 µM
- MIC [3]: 6 µM (≈ 9.14 µg/mL)
- MIC (Escherichia coli DL7): 1 µM (≈ 1.52 µg/mL)
- MIC [1]: ≥ 32 µM
- MIC [5]: 6 µM (≈ 9.14 µg/mL)
- MIC [9]: 6 µM (≈ 9.14 µg/mL)
- MIC [2]: 4 µM (≈ 6.09 µg/mL)

SMILES: CC(C)C[C@H](NC(=O)[C@@H](NC(=O)[C@@H](N)CCCCN)C(C)C)C(=O)N[C@@H](CCCCN)C(=O)N[C@@H](C)C(=O)N[C@@H](C)C(=O)N[C@@H](C)C(N)=O [KVLKAAA]
- MIC [10]: ≥ 50 µM
- MIC [11]: ≥ 50 µM
- MIC [12]: > 50 µM
- MIC [9]: > 50 µM

SMILES: CC(C)C[C@H](NC(=O)[C@H](Cc1ccc(O)cc1)NC(=O)[C@@H]1CCCN1C(=O)[C@@H]1CCCN1C(=O)[C@H](CCCN=C(N)N)NC(=O)[C@@H]1CCCN1C(=O)[C@H](CC(N)=O)NC(=O)[C@H](CC(N)=O)NC(=O)[C@@H](N)CC(N)=O)C(=O)N1CCC[C@H]1C(=O)N[C@@H](CCCN=C(N)N)C(=O)N1CCC[C@H]1C(=O)N[C@@H](CCCN=C(N)N)C(=O)N1CCC[C@H]1C(=O)N1CCC[C@H]1C(=O)O [NNNPRPPYLPRPRPP]
- MIC (Bacillus megaterium Bm11): ≥ 64 µM
- MIC (Escherichia coli D21): ≥ 64 µM
- MIC (Escherichia coli ML-35): ≥ 64 µM
- MIC [13]: > 64 µM
- MIC [14]: ≥ 64 µM
- MIC [2]: > 64 µM

SMILES: CC[C@H](C)[C@H](NC(=O)[C@H](CCCCN)NC(=O)[C@H](CCCCN)NC(=O)[C@H](Cc1ccccc1)NC(=O)[C@H](CC(C)C)NC(=O)[C@H](CCCN=C(N)N)NC(=O)[C@@H](N)CCCN=C(N)N)C(=O)N[C@@H](CC(C)C)C(=O)N[C@@H](CCCCN)C(=O)N[C@@H](Cc1ccc(O)cc1)C(=O)N[C@@H](CC(C)C)C(N)=O [RRLFKKILKYL]
- MIC [15]: 3.04 µM (≈ 4.5 µg/mL)
- MIC [16]: 11.5 µM (≈ 17 µg/mL)
- MIC [3]: 23.3 µM (≈ 34.5 µg/mL)
- MIC [4]: 11.5 µM (≈ 17 µg/mL)
- MIC [5]: 11.5 µM (≈ 17 µg/mL)
- MIC [7]: 23.3 µM (≈ 34.5 µg/mL)
